Reference: patent publication US20150337056A1, “Method for Immediately Terminating Radical Polymerizations, Inhibitor Solution, and Use Thereof” (Allessa GmbH, priority 2013, published 2015)

What was measured:
[1] = Solubility and low-temperature stability of inhibitors in (poly)alkylene glycols
[2] = Solubility of phenothiazine in conventional organic solvents; format: physicochemical
Text: Only in the N-methylpyrrolidone already mentioned and in the chemically and toxicologically related dimethylformamide could concentrated solutions of 30 percent by weight or more be prepared.
Tetrahydrofuran and acetone could also be identified as good solvents. Unfortunately these solvents have low boiling points and flashpoints which renders transport, storage and handling of the solutions more difficult.

[3] = solutions in N-alkylpyrrolidones (N-methylpyrrolidone, N-ethylpyrrolidone); cited from earlier work

## c1ccc2c(c1)Nc1ccccc1S2 [phenothiazine]
[1]; in (poly)alkylene glycols, between −20° C. and +20° C., FIG. 1
  temperature dependence of solubility: virtually independent of the temperature
[1]; in poly(alkylene) glycol(s)
  solubility in poly(alkylene) glycol(s): readily soluble
  temperature down to which stable solutions are formed: −25 °C
[2]; in N-methylpyrrolidone and in dimethylformamide
  concentrated solutions that could be prepared: ≥ 30 percent by weight
[2]; in methanol, ethanol, isopropanol, toluene, cyclohexane or n-hexane
  solubility: 2-3 percent by weight
[2]; tetrahydrofuran and acetone
  solvent quality for phenothiazine: good solvents
[3]
  low temperature down to which solutions are stable: −11 °C

## COc1ccc(O)cc1 [MEHQ, hydroquinone monomethyl ether]
[3]
  low temperature down to which solutions are stable: −11 °C
